Data reported in US7781439B2, “Pyrazolopyrimidines” (Bayer CropScience AG, priority 2005, dated 2010).
Like-named read-outs stand apart in the source and are kept apart here. Marks after values point to notes of the source that are not given here.

Key:
A375 cells = experiment: LIVE/DEAD cytotoxicity assay, inhibition of cell proliferation, A375; format: cell-based, human; details: for GI50: Homo sapiens, read-out: log GI50 values (M), A375 cells (converted)
Method: (§1) Compounds of the present invention were tested for a possible cytotoxic or proliferation-inhibiting activity on the human tumour cell lines HeLa, SW620 and A375 (all from ATCC, American Type Culture Collection). To this end, the cells were plated in microtitre plates from Greiner (manufacturer No. 781092) at a cell density of 1000 cells/microtitre plate well and cultivated in cell culture medium at 37° C. under a 5% carbon dioxide atmosphere. Cell culture media and additives were purchased from Invitrogen and the foetal calf serum from Biochrom. The cell culture media for HeLa and A375 cells were used as stated by ATCC (HeLa: MEM, order No. 10370-047, with 1% sodium bicarbonate, 1% non-essential amino acids, 1% sodium pyruvate, 10% foetal calf serum, 0.1% gentamycin; A375: DMEM, order No. 41965-039, 2% sodium bicarbonate, 1% L-Glutamax, 10% foetal calf serum, 0.1% gentamycin). The culture medium for the SW620 cells consisted of DMEM, order No. 41965-039, 1% non-essential amino acids, 10% foetal calf serum, 0.1% gentamycin.
(§2) 24 hours after the cells had been plated in the microtitre plates, various concentrations of at most 100 μM down to a minimum concentration of 5 nM of the test compounds were added to the cells. Stock solutions of the test compounds (10 mM) were prepared in DMSO and stored at −20° C. For the cytotoxicity tests, the test compounds were diluted in the appropriate cell culture medium.
(§3) After a further 48 hours of incubation, the cells were washed with medium and analysed with the aid of a two-colour fluorescence cytotoxicity/viability test (LIVE/DEAD Viability/Cytotoxicity ASSAY Kit from Molecular Probes, order No. L-3224), according to the instructions of the manufacturer. To this end, the medium was aspirated and in each case 30 μl of LIVE/DEAD reagent per microtitre plate well were added to the cells, which were then incubated for 30 minutes. The cells were then washed with PBS (phosphate-buffered saline). The number of live cells was analysed by measuring the green fluorescence of the live dye calcein-AM as a component of the LIVE/DEAD reagent using a fluorescence plate reader (Flexstation, from Molecular Devices) at an excitation wavelength of 485 nm and an emission wavelength of 525 nm (Oral et al. 1998). Cells only with cell culture medium, without added test compounds, were treated in parallel and analysed as growth controls. The reference compounds used for anti-tumour agents having a cytotoxic or proliferation-inhibiting action were colchicine (from Merck/Calbiochem, order No 234115) and Taxol (baccatin III N-benzyl-b-phenylisoserine ester, from Merck/Calbiochem, order No. 580555) (Schiff and Horwitz 1980; Holmes et al., 1991). The cytotoxic effects of the test compounds were expressed as logarithmic GI50 values ((growth)-inhibiting logarithmic concentration value at which a cell growth reduced by 50% compared to the control without test compounds was measured; Xia et al., 2001; Smith et al., 2005).

SW620 cells = experiment: LIVE/DEAD cytotoxicity assay, inhibition of cell proliferation, SW620; format: cell-based, human; details: for GI50: Homo sapiens, read-out: log GI50 values (M), SW620 cells (converted)
Method: as §1, §2, §3

HeLa cells = experiment: LIVE/DEAD cytotoxicity assay, inhibition of cell proliferation, HeLa; format: cell-based, human; details: for GI50: Homo sapiens, read-out: log GI50 values (M), HeLa cells (converted)
Method: as §1, §2, §3

log P determination = format: physicochemical
[1] = A375 cells, 48 hours incubation, calcein-AM fluorescence
[2] = SW620 cells, 48 hours incubation, calcein-AM fluorescence
[3] = HeLa cells, 48 hours incubation, calcein-AM fluorescence
[4] = values marked *, no footnote carries the single asterisk, general footnote: HPLC gradient method, acetonitrile/0.1% aqueous phosphoric acid
[5] = EEC Directive 79/831 Annex V. A8 by HPLC (gradient method, acetonitrile/0.1% aqueous phosphoric acid)

With `C[C@H](Nc1c(-c2c(F)cc(F)cc2Cl)c(Cl)nc2c(C(=O)NS(C)(=O)=O)cnn12)C(F)(F)F` [Example 117] the “log GI50 values (M), A375 cells” value (A375 cells; [1]) was 6.6 M, the “log GI50 values (M), SW620 cells” value (SW620 cells; [2]) was 6.6 M and the “log GI50 values (M), HeLa cells” value (HeLa cells; [3]) was 6.8 M. For the same molecule, the log p (log P determination; [4]) was 3.56*.
With `CC(C)[C@@H](C)Nc1c(-c2c(F)cc(F)cc2F)c(Cl)nc2c(C(=O)NS(C)(=O)=O)cnn12` [Example 177] the “log GI50 values (M), A375 cells” value (A375 cells; [1]) was 8.1 M, the “log GI50 values (M), SW620 cells” value (SW620 cells; [2]) was 6.7 M and the “log GI50 values (M), HeLa cells” value (HeLa cells; [3]) was >8 M. For the same molecule, the log p (log P determination; [4]) was 3.85*.
In the case of `CC(C)Nc1c(-c2c(F)cc(F)cc2F)c(Cl)nc2c(C(=O)NS(C)(=O)=O)cnn12` [Example 345], the “log GI50 values (M), A375 cells” value (A375 cells; [1]) was 6.3 M, the “log GI50 values (M), SW620 cells” value (SW620 cells; [2]) was 6.4 M and the “log GI50 values (M), HeLa cells” value (HeLa cells; [3]) was 6.6 M. The log p (log P determination; values marked *, HPLC, gradient method, acetonitrile/0.1% aqueous phosphoric acid, EEC Directive 79/831 Annex V. A8) was 3.24*.
`CC(=O)O[C@H]1C(=O)[C@@]2(C)[C@H]([C@H](OC(=O)c3ccccc3)[C@]3(O)C[C@H](OC(=O)[C@H](O)[C@@H](NC(=O)c4ccccc4)c4ccccc4)C(C)=C1C3(C)C)[C@]1(OC(C)=O)CO[C@@H]1C[C@@H]2O` [Taxol, reference compound] showed a GI50 (A375 cells; A-375, A375 cells, 48 hours incubation, calcein-AM fluorescence) of 2e-07 M, a GI50 (SW620 cells; SW-620, SW620 cells, 48 hours incubation, calcein-AM fluorescence) of 1.26e-07 M and a GI50 (HeLa cells; [3]) of 1.58e-08 M.
With `COc1cc2c(c(OC)c1OC)-c1ccc(OC)c(=O)cc1[C@@H](NC(C)=O)CC2` [colchicine, reference compound] the GI50 (A375 cells; A-375, 48 h) was 2e-08 M, the GI50 (SW620 cells; SW-620, 48 h) was 3.16e-08 M and the GI50 (HeLa cells; HeLa, 48 h) was 1.58e-08 M.
Work on `CC(Nc1c(-c2ccc(F)cc2Cl)c(Cl)nc2c(C(=O)Nc3ccn(C)n3)cnn12)C(C)(C)C` (centres unmarked) [compound 1185] yielded a log p (log P determination; [5]) of 4.69.
With `CC(C)C(C)Nc1c(-c2ccc(F)cc2Cl)c(Cl)nc2c(C(=O)Nc3ccnn3C)cnn12` (centres unmarked) [compound 1186] the log p (log P determination; [5]) was 4.18.
Work on `CC(Nc1c(-c2ccc(F)cc2Cl)c(Cl)nc2c(C(=O)Nc3cnn(C)c3)cnn12)C(C)(C)C` (centres unmarked) [compound 1187] yielded a log p (log P determination; [5]) of 4.26.
Molecule `CC(C)C(C)Nc1c(-c2ccc(F)cc2Cl)c(Cl)nc2c(C(=O)Nc3ncn(C)n3)cnn12` (centres unmarked) [compound 1188] has a log p (log P determination; [5]) of 3.62.
With `CC(C)C(C)Nc1c(-c2ccc(F)cc2Cl)c(Cl)nc2c(C(=O)Nc3cnn(C)c3)cnn12` (centres unmarked) [compound 1189] the log p (log P determination; [5]) was 3.95.
In the case of `CC(C)C(C)Nc1c(-c2ccc(F)cc2F)c(Cl)nc2c(C(=O)NS(C)(=O)=O)cnn12` (centres unmarked) [compound 1190], the log p (log P determination; [5]) was 3.87.
For `CC(Nc1c(-c2ccc(F)cc2Cl)c(Cl)nc2c(C(=O)Nc3ncn(C)n3)cnn12)C(C)(C)C` (centres unmarked) [compound 1191], the log p (log P determination; [5]) was 3.91.
Work on `CC1CCN(c2c(-c3ccc(F)cc3Cl)c(Cl)nc3c(C(=O)Nc4ncn(C)n4)cnn23)CC1` [compound 1192] yielded a log p (log P determination; [5]) of 3.89.
With `CC1CCN(c2c(-c3ccc(F)cc3Cl)c(Cl)nc3c(C(=O)Nc4ccnn4C)cnn23)CC1` [compound 1193] the log p (log P determination; [5]) was 4.47.
Work on `Cc1ccc(-c2c(Cl)nc3c(C(=O)NS(C)(=O)=O)cnn3c2NC(C)C(C)(C)C)c(Cl)c1` (centres unmarked) [compound 1194] yielded a log p (log P determination; [5]) of 4.76.
Molecule `CC1CCN(c2c(-c3ccc(F)cc3Cl)c(Cl)nc3c(C(=O)Nc4ccn(C)n4)cnn23)CC1` [compound 1195] has a log p (log P determination; [5]) of 4.66.
`CC1CCN(c2c(-c3ccc(F)cc3Cl)c(Cl)nc3c(C(=O)Nc4cnn(C)c4)cnn23)CC1` [compound 1196] showed a log p (log P determination; [5]) of 4.31.
`CC1CCN(c2c(-c3ccc(F)cc3Cl)c(Cl)nc3c(C(=O)Nc4ncn[nH]4)cnn23)CC1` [compound 1197] gave a log p (log P determination; [5]) of 4.11.
Work on `COC(=O)c1cn[nH]c1N` [methyl 5-amino-1H-pyrazole-4-carboxylate] yielded a log p (log P determination; HPLC (gradient method), starting materials and intermediates, log P / log P*, read-out: log P) of -0.07.
